No end group written: not given here.
What was measured:
[1] = test system: Mebus strain of bovine coronavirus; experiment: Inhibition of bovine coronavirus replication in MDBK cells (CPE, viral RNA RT-qPCR); format: cell-based; conditions: MOI 0.01, 120 hours
Procedure: To evaluate the antiviral effect of this peptide, bovine kidney cells known as MDBK were seeded in 24-well plates, at 280,000 cells per well, in DMEM culture medium with 10% fetal calf serum (FBS). The plates were incubated in a humid environment at 37° C. and 5% CO2. […] Once this treatment time elapsed, the culture medium was removed and the cells were infected with the Mebus strain of bovine coronavirus for 1 hour, in 200 μL of serum-free DMEM medium, at a multiplicity of infection (MOI) of 0.01 in a humid environment at 37° C. and 5% CO2. Subsequently, the volume of each well was brought up to 1 mL with serum-free DMEM medium in the presence of the peptide. Incubation for 120 hours was carried out, and cell-culture viability was evaluated by the method of metabolic reduction of MTT. To do this, the culture medium was removed. Two-hundred microliters of MTT were added to each well, and the plate was incubated for 2 to 4 hours at 37° C., 5% CO2 and 95% humidity. Subsequently, 300 μL of isobutyl alcohol were added and the plate was shaken for 1 hour. As an alternative to the MTT method, cells were stained with crystal violet (0.1%). Finally, the absorbance in each well was determined at 570 nm in a plate reader (Amersham). The antiviral effect was expressed as percent of inhibition of the cytopathic effect (CPE) (FIG. 1A) and inhibition of viral RNA (FIG. 1B) by RT-qPCR.

[2] = test system: vimentin intermediate filaments; experiment: Immunodetection of vimentin intermediate filaments in VeroE6 cells; format: cell-based, African green monkey; conditions: 100 μM, 24 hours
Procedure: They were then fixed and permeabilized in a solution of acetone:methanol (1:1 V/V) for 10 min at −20° C. and blocked with 1% bovine serum albumin in phosphate buffered saline for 30 min, at 37° C. Vimentin intermediate filaments were detected using a murine anti-vimentin IgG1 monoclonal antibody (4.5 μg/mL) followed by an anti-mouse antibody conjugated to fluorescein isothiocyanate (1/200). Vimentin intermediate filaments (FI) were observed distributed throughout the cytoplasm, from the perinuclear region towards one or both poles of the cell.

pAb anti-SEQ ID NO: 1 = experiment: BIACORE surface plasmon resonance interaction with immobilized peptide; format: binding, rabbit
ZIKV E protein (Zika) = target: T1, ZIKV E protein (Zika) (Zika virus, UniProt A0A024B7W1); experiment: as above; format: binding
T1 construct: the envelope protein of the Zika virus (ZIKV E)
T1 sequence (A0A024B7W1 291-794): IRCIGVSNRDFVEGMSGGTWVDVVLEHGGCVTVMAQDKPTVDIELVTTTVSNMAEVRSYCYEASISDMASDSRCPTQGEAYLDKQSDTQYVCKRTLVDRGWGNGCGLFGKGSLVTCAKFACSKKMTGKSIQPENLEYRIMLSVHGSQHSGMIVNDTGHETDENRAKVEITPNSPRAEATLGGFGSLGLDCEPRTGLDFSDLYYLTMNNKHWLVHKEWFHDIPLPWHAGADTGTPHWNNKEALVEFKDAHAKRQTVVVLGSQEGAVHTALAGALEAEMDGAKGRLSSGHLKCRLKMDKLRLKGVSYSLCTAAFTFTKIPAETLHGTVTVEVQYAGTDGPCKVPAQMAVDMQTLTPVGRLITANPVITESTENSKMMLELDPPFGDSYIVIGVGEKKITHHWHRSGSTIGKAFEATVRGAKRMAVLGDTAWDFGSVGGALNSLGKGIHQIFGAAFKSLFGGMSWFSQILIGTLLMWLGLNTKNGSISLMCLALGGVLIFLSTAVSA

NS1-D2 (Dengue) = target: T2, NS1-D2 (Dengue) (Dengue virus type 2, UniProt P29990); experiment: as above; format: binding, Dengue virus 2
T2 construct: the non-structural protein 1 of the Dengue virus 2 (NS1-D2)
T2 sequence (P29990 776-1127 limits assumed): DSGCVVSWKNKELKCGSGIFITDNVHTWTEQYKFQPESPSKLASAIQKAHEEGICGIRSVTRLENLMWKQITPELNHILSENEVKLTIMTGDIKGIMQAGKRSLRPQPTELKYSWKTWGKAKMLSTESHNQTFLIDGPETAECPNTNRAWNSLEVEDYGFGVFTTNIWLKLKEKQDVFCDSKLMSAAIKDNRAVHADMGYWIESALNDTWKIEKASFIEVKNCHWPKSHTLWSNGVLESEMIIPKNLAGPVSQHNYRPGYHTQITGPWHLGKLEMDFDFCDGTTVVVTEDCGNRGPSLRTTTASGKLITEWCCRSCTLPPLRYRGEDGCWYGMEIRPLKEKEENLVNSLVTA

[3] = target: T3, Dengue 2 virus capsid protein (Dengue virus type 2, UniProt P29990); experiment: as above; format: binding
T3 construct: with the Dengue 2 virus capsid protein
T3 sequence (P29990 1-100 limits assumed): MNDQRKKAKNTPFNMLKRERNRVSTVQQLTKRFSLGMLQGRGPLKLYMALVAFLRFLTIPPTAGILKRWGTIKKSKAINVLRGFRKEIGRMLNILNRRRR

[4] = target: receptor binding-domain of the viral S protein (RBD) (Severe acute respiratory syndrome coronavirus 2, UniProt P0DTC2); experiment: as above; parameters: species or system SARS-CoV-2
Influenza A H1N1 = format: cell-based; conditions: 50 μM; tracheo-bronchial HAE
[5] = test system: Parainfluenza virus type 3 (HPIV3); format: cell-based; conditions: 50 μM; HAE, 3 days
Dengue 2 virus = Dengue 2 virus replication in primary cultures of lung cells (PFU in VeroE6); format: cell-based; conditions: 100 μM, 48 hours
Procedure: The cultures were treated with the peptides for 2 or 24 hours, at concentrations of 0.01 to 100 μM before viral challenge. The medium was discarded and the cells were infected with Dengue 2 virus, at an MOI of 10 for 2 hours at 37° C. and 5% CO2. The virus was eliminated, a wash was then performed and the cultures were treated again with peptides in DMEM medium, and incubated for 48 hours at 37° C. and 5% CO2. Subsequently, the cultures were collected to assess viral performance on VeroE6 cells. For this, the cells were seeded in 24-well plates and when they reached confluence they were infected with serial 10-fold dilutions of the supernatants, incubated for 1 hour at 37° C. and 5% CO2. Next, a wash was carried out with PBS, and a layer of agar in 2× DMEM (1:1) added. The layer was allowed to solidify and incubated for 48 hours at 37° C. 5% CO2. The plates were stained with crystal violet, for the determination of the number of PFUs. The peptides inhibited between 68 and 88% of viral replication (Table 5).

[6] = test system: herpes simplex virus type 1 (HSV-1); experiment: HSV-1 replication in primary explants of human nasal mucosa (qPCR); format: cell-based; conditions: 100 μM, 36 hours
Procedure: The replication of herpes simplex virus type 1 (HSV-1) was performed in primary explants of human nasal mucosa, according to Glorieux et al. (Glorieux et al. 2011, PLoS ONE, 6(7): e22160, doi: 10.1371/journal.pone.0022160). […] Afterwards, the cultures were washed and kept at 37° C. and 5% CO2 for 36 hours, in presence of the peptides in culture medium. The cultures were harvested, and HSV-1 was quantified by qPCR. The percentages of viral inhibition ranged from 70 to 92% in presence of the peptides (Table 5).

SARS-CoV-2 [7] = experiment: Prophylaxis in healthy contacts of COVID-19 patients (RT-qPCR of nasopharyngeal swabs); format: in vivo, human; conditions: Group II, intranasal drops 14 μg/mL daily for 6 days
Procedure: Healthy individuals, contacts of COVID-19 patients, were included in this study. Two groups of 25 healthy individuals exposed to a similar risk of contagion (Group I and Group II) were analyzed. Group II was treated daily, for 6 days, with the peptide identified in the Sequence Listing as SEQ ID NO: 1 as intranasal drops, at a concentration of 14 μg/mL. Nasopharyngeal swab samples were collected for SARS-CoV-2 detection by RT-qPCR (Roche). Sampling was carried out at the beginning of the study and 7 days after it began.

SARS-CoV-2 [8] = conditions: 72 h, 100 μM
[9] = test system: CSF virus Margarita strain; conditions: 72 h

RVTQMNLNDRLASLYDKV [SEQ ID NO: 1]
antiviral effect on bovine coronavirus infection (inhibition of CPE, viral RNA) [1]: exerts an antiviral effect | damage to cell integrity after treatment [2]: no damage to cell integrity was observed | Kd (pAb anti-SEQ ID NO: 1): 115 nM | ka (pAb anti-SEQ ID NO: 1): 2750 M⁻¹ s⁻¹ | kd (pAb anti-SEQ ID NO: 1): 0.000318 s⁻¹ | Kd (ZIKV E protein (Zika)): 1590 nM | Rmax (ZIKV E protein (Zika)): 2.11 × 10^4 RU | interaction (ZIKV E protein (Zika)): showed interaction | kd (ZIKV E protein (Zika)): 0.00154 s⁻¹ | kon (ZIKV E protein (Zika); read-out: ka): 965 M⁻¹ s⁻¹ | Kd (NS1-D2 (Dengue)): 769 nM | Rmax (NS1-D2 (Dengue)): 1.86 RU | interaction (NS1-D2 (Dengue)): showed interaction | kd (NS1-D2 (Dengue)): 1.02e-05 s⁻¹ | kon (NS1-D2 (Dengue); read-out: ka): 13.3 M⁻¹ s⁻¹ | Kd [3]: 1.67 nM | Rmax [3]: 409 RU | interaction [3]: concentration dependent interaction | kd [3]: 0.000413 s⁻¹ | kon ([3]; read-out: ka): 247000 M⁻¹ s⁻¹ | interaction [4]: neither the RBD nor the ACE2 peptide interact | Influenza A H1N1 Inhib. % (Influenza A H1N1): 86% | Parainfluenza Type 3 Inhib. % [5]: 79% | Dengue 2 Inhib. % (Dengue 2 virus): 81% | Herpes simplex HSV-1 Inhib. % [6]: 92% | SARS-CoV-2 positive cases (%) (SARS-CoV-2 [7]; Day 7): 3.9% | SARS-CoV-2 positive cases/Total (SARS-CoV-2 [7]; Day 7): 1/25 | SARS-CoV-2 positive cases (%) (SARS-CoV-2 [7]; Day of onset): 0% | SARS-CoV-2 positive cases/Total (SARS-CoV-2 [7]; Day of onset): 0/25 | Bronchial HAE Inhibition % (SARS-CoV-2 [8]): 84% | Nasal HAE Inhibition % (SARS-CoV-2 [8]): 74% | IC50 [9]: 300 nM
